From US20260356819A1, “OXOISOINDOLINYL-SUBSTITUTED […] DERIVATIVE AND USE THEREOF” (GLUETACS THERAPEUTICS (SHANGHAI) CO., LTD., priority 2023, published 2026)

Columns and labels:
Type in all cases: cell-based
Settings in all cases: compounds at 50 nM and 500 nM
[1] = molecular target: T1, CK1α (Homo sapiens, UniProt P48729+Q96SW2); experiment: Western blot degradation of CK1α in hPBMCs (24 h)
T1 construct: The supernatant was aspirated as the extracted total cell protein; endogenous in cells; host or cells: human peripheral blood mononuclear cells (hPBMCs)
Outline: (§1)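 Compounds were tested at 50 nM and 500 nM on hPBMCs (1×10^6 cells/mL) for 24 h, alongside DMSO. Proteins were detected by Western blot after denaturation at 95 °C; remaining protein computed from normalised band grayscale.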

[2] = molecular target: T2, IKZF1 (Homo sapiens, UniProt Q13422+Q96SW2); experiment: Western blot degradation of IKZF1 in hPBMCs (24 h)
T2 construct: The supernatant was aspirated as the extracted total cell protein; endogenous in cells; host or cells: human peripheral blood mononuclear cells (hPBMCs)
Outline: as §1

[3] = molecular target: T3, IKZF2 (Homo sapiens, UniProt Q96SW2+Q9UKS7); experiment: Western blot degradation of IKZF2 in hPBMCs (24 h)
T3 construct: The supernatant was aspirated as the extracted total cell protein; endogenous in cells; host or cells: human peripheral blood mononuclear cells (hPBMCs)
Outline: as §1

[4] = molecular target: T4, WEE1 (Homo sapiens, UniProt P30291+Q96SW2); experiment: Western blot degradation of WEE1 in hPBMCs (24 h)
T4 construct: The supernatant was aspirated as the extracted total cell protein; endogenous in cells; host or cells: human peripheral blood mononuclear cells (hPBMCs)
Outline: as §1

[5] = molecular target: T5, IKZF3 (Homo sapiens, UniProt Q96SW2+Q9UKT9); experiment: Western blot degradation of IKZF3 in hPBMCs (24 h)
T5 construct: The supernatant was aspirated as the extracted total cell protein; endogenous in cells; host or cells: human peripheral blood mononuclear cells (hPBMCs)
Outline: as §1

[6] = molecular target: T6, GSPT1 (Homo sapiens, UniProt P15170+Q96SW2); experiment: Western blot degradation of GSPT1 in hPBMCs (24 h)
T6 construct: The supernatant was aspirated as the extracted total cell protein; endogenous in cells; host or cells: human peripheral blood mononuclear cells (hPBMCs)
Outline: as §1

T1 sequence (P48729 whole entry): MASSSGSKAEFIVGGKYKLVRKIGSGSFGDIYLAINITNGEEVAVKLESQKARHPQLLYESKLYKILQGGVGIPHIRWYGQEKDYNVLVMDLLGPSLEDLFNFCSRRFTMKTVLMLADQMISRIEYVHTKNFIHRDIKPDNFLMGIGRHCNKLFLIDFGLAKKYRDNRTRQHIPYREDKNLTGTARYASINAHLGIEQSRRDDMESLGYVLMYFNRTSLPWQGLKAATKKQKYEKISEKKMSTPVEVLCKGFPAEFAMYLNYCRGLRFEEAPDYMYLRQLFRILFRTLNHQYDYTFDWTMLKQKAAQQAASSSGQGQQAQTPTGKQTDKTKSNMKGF
T1 sequence (Q96SW2 whole entry): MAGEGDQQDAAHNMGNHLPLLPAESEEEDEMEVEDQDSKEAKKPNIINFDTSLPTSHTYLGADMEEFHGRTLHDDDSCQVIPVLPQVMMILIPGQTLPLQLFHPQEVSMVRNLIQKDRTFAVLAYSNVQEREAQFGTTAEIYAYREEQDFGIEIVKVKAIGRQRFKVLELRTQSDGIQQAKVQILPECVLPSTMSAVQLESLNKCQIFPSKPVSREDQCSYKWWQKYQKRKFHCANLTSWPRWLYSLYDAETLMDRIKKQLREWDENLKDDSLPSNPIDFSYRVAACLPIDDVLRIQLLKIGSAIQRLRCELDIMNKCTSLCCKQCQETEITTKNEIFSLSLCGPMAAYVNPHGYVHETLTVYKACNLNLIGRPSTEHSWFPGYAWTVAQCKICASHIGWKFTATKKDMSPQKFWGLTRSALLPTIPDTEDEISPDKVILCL
T1 sequence (Q16531 whole entry partner): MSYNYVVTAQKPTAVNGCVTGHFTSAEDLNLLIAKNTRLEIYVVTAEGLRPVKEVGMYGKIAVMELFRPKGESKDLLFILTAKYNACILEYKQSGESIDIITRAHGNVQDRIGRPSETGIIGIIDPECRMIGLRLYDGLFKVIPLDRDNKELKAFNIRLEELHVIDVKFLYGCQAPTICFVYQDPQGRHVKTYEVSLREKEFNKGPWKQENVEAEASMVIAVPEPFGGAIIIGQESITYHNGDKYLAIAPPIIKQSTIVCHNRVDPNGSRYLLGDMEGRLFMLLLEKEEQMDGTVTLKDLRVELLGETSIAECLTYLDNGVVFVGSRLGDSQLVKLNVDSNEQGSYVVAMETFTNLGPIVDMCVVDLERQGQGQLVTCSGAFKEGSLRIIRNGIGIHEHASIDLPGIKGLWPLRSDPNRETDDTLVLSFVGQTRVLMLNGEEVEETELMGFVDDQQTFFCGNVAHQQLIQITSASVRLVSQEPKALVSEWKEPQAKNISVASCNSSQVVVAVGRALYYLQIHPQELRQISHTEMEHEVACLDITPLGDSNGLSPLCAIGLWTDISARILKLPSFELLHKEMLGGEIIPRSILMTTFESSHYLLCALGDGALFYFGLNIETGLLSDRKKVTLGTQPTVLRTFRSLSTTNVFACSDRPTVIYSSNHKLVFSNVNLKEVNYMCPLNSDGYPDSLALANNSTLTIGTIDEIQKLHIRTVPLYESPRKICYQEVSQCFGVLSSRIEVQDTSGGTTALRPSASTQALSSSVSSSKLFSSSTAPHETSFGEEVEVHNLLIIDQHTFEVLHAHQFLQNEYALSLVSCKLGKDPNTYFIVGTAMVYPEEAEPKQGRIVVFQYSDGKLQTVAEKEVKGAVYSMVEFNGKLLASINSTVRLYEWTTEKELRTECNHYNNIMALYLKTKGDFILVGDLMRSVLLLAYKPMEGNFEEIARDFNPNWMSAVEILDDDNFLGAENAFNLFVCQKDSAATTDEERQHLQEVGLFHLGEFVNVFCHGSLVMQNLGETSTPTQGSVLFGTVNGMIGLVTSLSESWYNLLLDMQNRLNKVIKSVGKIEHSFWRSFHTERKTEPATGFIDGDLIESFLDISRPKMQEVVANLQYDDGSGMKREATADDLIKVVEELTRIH
T3 sequence (Q9UKS7 whole entry): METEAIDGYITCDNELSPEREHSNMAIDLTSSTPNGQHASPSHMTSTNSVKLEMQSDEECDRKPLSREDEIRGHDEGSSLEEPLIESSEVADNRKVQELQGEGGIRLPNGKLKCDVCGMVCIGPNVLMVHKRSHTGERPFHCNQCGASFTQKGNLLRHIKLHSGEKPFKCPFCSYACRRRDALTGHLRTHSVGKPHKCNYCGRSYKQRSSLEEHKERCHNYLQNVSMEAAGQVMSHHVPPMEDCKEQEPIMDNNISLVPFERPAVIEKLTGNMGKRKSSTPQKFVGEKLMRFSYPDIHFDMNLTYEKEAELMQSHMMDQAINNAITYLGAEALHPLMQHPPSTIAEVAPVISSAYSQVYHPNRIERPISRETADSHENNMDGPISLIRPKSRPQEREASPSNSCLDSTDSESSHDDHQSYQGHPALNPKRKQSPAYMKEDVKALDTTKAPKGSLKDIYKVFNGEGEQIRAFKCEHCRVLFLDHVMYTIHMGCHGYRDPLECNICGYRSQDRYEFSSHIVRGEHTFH
T3 sequence (Q96SW2 whole entry): as the sequence (Q96SW2 whole entry) above
T3 sequence (Q16531 whole entry partner): as the sequence (Q16531 whole entry partner) above
T6 sequence (P15170 whole entry): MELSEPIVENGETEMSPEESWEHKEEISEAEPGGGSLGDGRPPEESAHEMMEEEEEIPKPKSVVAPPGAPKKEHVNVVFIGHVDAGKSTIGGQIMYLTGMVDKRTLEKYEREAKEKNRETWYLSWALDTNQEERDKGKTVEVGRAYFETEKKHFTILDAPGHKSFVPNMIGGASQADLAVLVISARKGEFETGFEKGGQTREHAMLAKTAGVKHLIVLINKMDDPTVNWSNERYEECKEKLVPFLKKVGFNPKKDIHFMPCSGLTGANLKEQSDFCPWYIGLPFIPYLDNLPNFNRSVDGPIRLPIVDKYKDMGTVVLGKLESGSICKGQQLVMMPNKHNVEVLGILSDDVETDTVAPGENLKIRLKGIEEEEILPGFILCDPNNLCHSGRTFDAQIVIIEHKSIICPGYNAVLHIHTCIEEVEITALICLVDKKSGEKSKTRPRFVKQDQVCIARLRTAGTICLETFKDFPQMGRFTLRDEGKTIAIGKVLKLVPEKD
T6 sequence (Q96SW2 whole entry): as the sequence (Q96SW2 whole entry) above
T6 sequence (Q16531 whole entry partner): as the sequence (Q16531 whole entry partner) above
T5 sequence (Q9UKT9 whole entry): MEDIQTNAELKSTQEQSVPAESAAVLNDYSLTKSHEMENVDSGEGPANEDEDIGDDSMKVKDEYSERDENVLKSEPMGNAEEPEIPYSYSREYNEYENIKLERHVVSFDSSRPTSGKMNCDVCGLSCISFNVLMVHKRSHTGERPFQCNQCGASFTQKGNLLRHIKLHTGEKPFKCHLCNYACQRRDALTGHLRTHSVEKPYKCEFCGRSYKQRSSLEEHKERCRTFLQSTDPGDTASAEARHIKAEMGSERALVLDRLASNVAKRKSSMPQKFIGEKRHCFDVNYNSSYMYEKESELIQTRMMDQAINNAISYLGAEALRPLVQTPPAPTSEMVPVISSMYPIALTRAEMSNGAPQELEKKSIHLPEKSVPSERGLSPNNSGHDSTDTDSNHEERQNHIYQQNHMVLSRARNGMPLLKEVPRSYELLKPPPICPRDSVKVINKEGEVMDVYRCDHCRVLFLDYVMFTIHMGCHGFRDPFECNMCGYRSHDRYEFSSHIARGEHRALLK
T5 sequence (Q96SW2 whole entry): as the sequence (Q96SW2 whole entry) above
T5 sequence (Q16531 whole entry partner): as the sequence (Q16531 whole entry partner) above
T2 sequence (Q13422 whole entry): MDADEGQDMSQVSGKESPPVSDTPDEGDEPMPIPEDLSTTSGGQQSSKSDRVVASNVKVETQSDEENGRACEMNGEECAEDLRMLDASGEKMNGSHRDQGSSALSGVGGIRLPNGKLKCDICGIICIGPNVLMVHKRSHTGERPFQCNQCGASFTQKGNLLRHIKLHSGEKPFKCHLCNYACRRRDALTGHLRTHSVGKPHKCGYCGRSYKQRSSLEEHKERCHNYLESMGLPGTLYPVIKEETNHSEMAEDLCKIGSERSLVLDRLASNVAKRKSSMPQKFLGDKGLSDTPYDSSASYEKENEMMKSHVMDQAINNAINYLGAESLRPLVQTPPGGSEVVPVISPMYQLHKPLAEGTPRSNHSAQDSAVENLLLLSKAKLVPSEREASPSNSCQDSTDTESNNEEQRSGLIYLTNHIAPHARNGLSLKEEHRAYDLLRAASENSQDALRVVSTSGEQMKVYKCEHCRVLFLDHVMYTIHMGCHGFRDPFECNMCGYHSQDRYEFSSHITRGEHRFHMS
T2 sequence (Q96SW2 whole entry): as the sequence (Q96SW2 whole entry) above
T2 sequence (Q16531 whole entry partner): as the sequence (Q16531 whole entry partner) above

Compound | CK1α substrate protein remaining % [1] | IKZF1 substrate protein remaining % [2] | IKZF2 substrate protein remaining % [3] | WEE1 substrate protein remaining % [4] | IKZF3 substrate protein remaining % [5] | GSPT1 substrate protein remaining % [6]
CC1(C)CCC(CN2CC3CCC2CN3Cc2ccc3c(c2)C(=O)N(N2CCC(=O)NC2=O)C3=O)=C(c2ccc(Cl)cc2)C1 (stereo not drawn) [GT-07300, 5-((5-((4′-chloro-5,5-dimethyl-3,4,5,6-tetrahydro-[1,1′-biphenyl]-2-yl)methyl)-2,5-diazabicyclo[2.2.2]octan-2-yl)methyl)-2-(2,4-dioxotetrahydropyrimidin-1(2H)-yl)isoindoline-1,3-dione] | B (80%< substrate protein remaining % ≤100%) | B (80%< substrate protein remaining % ≤100%) | B (80%< substrate protein remaining % ≤100%) | A (0% ≤ substrate protein remaining % ≤80%) | B (80%< substrate protein remaining % ≤100%) | B (80%< substrate protein remaining % ≤100%)
CC1(C)CCC(CN2CCN(Cc3ccc4c(c3)C(=O)N(N3CCC(=O)NC3=O)C4=O)C(C(F)(F)F)C2)=C(c2ccc(Cl)cc2)C1 (stereo not drawn) [GT-07301, 5-((4-((4′-chloro-5,5-dimethyl-3,4,5,6-tetrahydro-[1,1′-biphenyl]-2-yl)methyl)-2-(trifluoromethyl)piperazin-1-yl)methyl)-2-(2,4-dioxotetrahydropyrimidin-1(2H)-yl)isoindoline-1,3-dione] | B (80%< substrate protein remaining % ≤100%) | B (80%< substrate protein remaining % ≤100%) | B (80%< substrate protein remaining % ≤100%) | B (80%< substrate protein remaining % ≤100%) | B (80%< substrate protein remaining % ≤100%) | A (0% ≤ substrate protein remaining % ≤80%)
O=C1CCN(N2C(=O)c3ccc(CN4CCN(CC5=C(c6ccc(F)cc6)CCCC5)CC4)cc3C2=O)C(=O)N1 [GT-07302, 2-(2,4-dioxotetrahydropyrimidin-1(2H)-yl)-5-((4-((4′-fluoro-3,4,5,6-tetrahydro-[1,1′-biphenyl]-2-yl)methyl)piperazin-1-yl)methyl)isoindoline-1,3-dione] | B (80%< substrate protein remaining % ≤100%) | B (80%< substrate protein remaining % ≤100%) | B (80%< substrate protein remaining % ≤100%) | A (0% ≤ substrate protein remaining % ≤80%) | B (80%< substrate protein remaining % ≤100%) | B (80%< substrate protein remaining % ≤100%)
CC1(C)CC(c2ccc(Cl)cc2)=C(CN2CCN(Cc3ccc4c(c3)C(=O)N(N3CCC(=O)NC3=O)C4=O)CC2)CO1 [GT-07304, 5-((4-((4-(4-chlorophenyl)-6,6-dimethyl-5,6-dihydro-2H-pyran-3-yl)methyl)piperazin-1-yl)methyl)-2-(2,4-dioxotetrahydropyrimidin-1(2H)-yl)isoindoline-1,3-dione] | A (0% ≤ substrate protein remaining % ≤80%) | B (80%< substrate protein remaining % ≤100%) | B (80%< substrate protein remaining % ≤100%) | B (80%< substrate protein remaining % ≤100%) | B (80%< substrate protein remaining % ≤100%) | A (0% ≤ substrate protein remaining % ≤80%)
Cc1ccsc1C1CCN(Cc2ccc3c(c2)CN(N2CCC(=O)NC2=O)C3=O)CC1 [GT-07305, 1-(5-((4-(3-methylthiophen-2-yl)piperidin-1-yl)methyl)-1-oxoisoindolin-2-yl)dihydropyrimidine-2,4(1H,3H)-dione] | B (80%< substrate protein remaining % ≤100%) | B (80%< substrate protein remaining % ≤100%) | A (0% ≤ substrate protein remaining % ≤80%) | B (80%< substrate protein remaining % ≤100%) | A (0% ≤ substrate protein remaining % ≤80%) | A (0% ≤ substrate protein remaining % ≤80%)
Cc1ccsc1C1CCN(Cc2ccc3c(c2)C(=O)N(N2CCC(=O)NC2=O)C3=O)CC1 [GT-07306, 2-(2,4-dioxotetrahydropyrimidin-1(2H)-yl)-5-((4-(3-methylthiophen-2-yl)piperidin-1-yl)methyl)isoindoline-1,3-dione] | B (80%< substrate protein remaining % ≤100%) | B (80%< substrate protein remaining % ≤100%) | B (80%< substrate protein remaining % ≤100%) | B (80%< substrate protein remaining % ≤100%) | A (0% ≤ substrate protein remaining % ≤80%) | A (0% ≤ substrate protein remaining % ≤80%)
CC1(C)CCC(CN2CC3CC2CN3Cc2ccc3c(c2)CN(N2CCC(=O)NC2=O)C3=O)=C(c2ccc(Cl)cc2)C1 (stereo not drawn) [GT-07329, 1-(5-((5-((4′-chloro-5,5-dimethyl-3,4,5,6-tetrahydro-[1,1′-biphenyl]-2-yl)methyl)-2,5-diazabicyclo[2.2.1]heptan-2-yl)methyl)-1-oxoisoindolin-2-yl)dihydropyrimidine-2,4(1H,3H)-dione] | B (80%< substrate protein remaining % ≤100%) | B (80%< substrate protein remaining % ≤100%) | B (80%< substrate protein remaining % ≤100%) | A (0% ≤ substrate protein remaining % ≤80%) | B (80%< substrate protein remaining % ≤100%) | A (0% ≤ substrate protein remaining % ≤80%)
CC1(C)CCC(CN2CC3CCC(C2)N3Cc2ccc3c(c2)CN(N2CCC(=O)NC2=O)C3=O)=C(c2ccc(Cl)cc2)C1 [GT-07330, 1-(5-((3-((4′-chloro-5,5-dimethyl-3,4,5,6-tetrahydro-[1,1′-biphenyl]-2-yl)methyl)-3,8-diazabicyclo[3.2.1]octan-8-yl)methyl)-1-oxoisoindolin-2-yl)dihydropyrimidine-2,4(1H,3H)-dione] | B (80%< substrate protein remaining % ≤100%) | A (0% ≤ substrate protein remaining % ≤80%) | A (0% ≤ substrate protein remaining % ≤80%) | A (0% ≤ substrate protein remaining % ≤80%) | A (0% ≤ substrate protein remaining % ≤80%) | A (0% ≤ substrate protein remaining % ≤80%)
CC1(C)CCC(CN2CC3CCC2CN3Cc2ccc3c(c2)CN(N2CCC(=O)NC2=O)C3=O)=C(c2ccc(Cl)cc2)C1 (stereo not drawn) [GT-07331, 1-(5-((5-((4′-chloro-5,5-dimethyl-3,4,5,6-tetrahydro-[1,1′-biphenyl]-2-yl)methyl)-2,5-diazabicyclo[2.2.2]octan-2-yl)methyl)-1-oxoisoindolin-2-yl)dihydropyrimidine-2,4(1H,3H)-dione] | A (0% ≤ substrate protein remaining % ≤80%) | A (0% ≤ substrate protein remaining % ≤80%) | B (80%< substrate protein remaining % ≤100%) | A (0% ≤ substrate protein remaining % ≤80%) | A (0% ≤ substrate protein remaining % ≤80%) | A (0% ≤ substrate protein remaining % ≤80%)
CC1(C)CC(c2ccc(Cl)cc2)=C(CN2CCN(Cc3ccc4c(c3)CN(N3CCC(=O)NC3=O)C4=O)CC2)CO1 [GT-07332, 1-(5-((4-((4-(4-chlorophenyl)-6,6-dimethyl-5,6-dihydro-2H-pyran-3-yl)methyl)piperazin-1-yl)methyl)-1-oxoisoindolin-2-yl)dihydropyrimidine-2,4(1H,3H)-dione] | B (80%< substrate protein remaining % ≤100%) | A (0% ≤ substrate protein remaining % ≤80%) | B (80%< substrate protein remaining % ≤100%) | A (0% ≤ substrate protein remaining % ≤80%) | A (0% ≤ substrate protein remaining % ≤80%) | A (0% ≤ substrate protein remaining % ≤80%)
CC1(C)CCC(CN2CC3CCC(C2)N3Cc2ccc3c(c2)C(=O)N(N2CCC(=O)NC2=O)C3=O)=C(c2ccc(Cl)cc2)C1 [GT-07333, 5-((3-((4′-chloro-5,5-dimethyl-3,4,5,6-tetrahydro-[1,1′-biphenyl]-2-yl)methyl)-3,8-diazabicyclo[3.2.1]octan-8-yl)methyl)-2-(2,4-dioxotetrahydropyrimidin-1(2H)-yl)isoindoline-1,3-dione] | B (80%< substrate protein remaining % ≤100%) | B (80%< substrate protein remaining % ≤100%) | B (80%< substrate protein remaining % ≤100%) | B (80%< substrate protein remaining % ≤100%) | B (80%< substrate protein remaining % ≤100%) | A (0% ≤ substrate protein remaining % ≤80%)
